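48-hour exposure; five concentrations; linearly interpolated endpoints. At the TGI there is no net growth.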 Some results are limits rather than exact numbers.

Data on 15 molecules can be found in PubChem BioAssay (NCI).

Test systems include SW-620 colon; RXF 393 renal; TK-10 renal; M14 melanoma; OVCAR-3 ovarian; SK-MEL-2 melanoma; BT-549 breast; COLO 205 colon; HL-60(TB) leukemia; SK-MEL-5 melanoma.
Holding throughout (assay): NCI-60 cell line screen, 48 h

As for `CC(=N\N)/C(C)=N/N=C(C)/C(C)=N/N=C(C)/C(C)=N/N`, the TGI in the test on SW-620 colon, with RXF 393 renal, with TK-10 renal, with M14 melanoma, with OVCAR-3 ovarian and in the test on SK-MEL-2 melanoma was > 100 µM each time. Also, the TGI in the test with BT-549 breast, in the test with COLO 205 colon, in the test with HL-60(TB) leukemia and in the test with SK-MEL-5 melanoma was > 100 µM throughout.
Regarding `CCN(CC)c1ccc(/C=C/C=C2C(=O)NC(=S)NC2=O)cc1`, the TGI in the test on SW-620 colon was > 100 µM; in the test with RXF 393 renal, 45.2 µM; in the test with TK-10 renal, > 100 µM; in the test with M14 melanoma it was > 100 µM; with OVCAR-3 ovarian, > 72.6 µM; with SK-MEL-2 melanoma it was > 100 µM. For the same molecule, the TGI in the test on BT-549 breast was > 75.4 µM; with COLO 205 colon it was > 100 µM; in the test with HL-60(TB) leukemia, 11 µM; with SK-MEL-5 melanoma, > 100 µM.
In the case of `COc1ccc(/C=C/C2=NN(c3cccc(S(=O)(=O)O)c3)C3(C2)SCC(=O)N3c2nc3ccccc3s2)cc1` (stereo not given), the TGI in the test with SW-620 colon, in the test with RXF 393 renal, in the test with TK-10 renal, in the test on M14 melanoma, with SK-MEL-2 melanoma and in the test on BT-549 breast was > 100 µM throughout. Also, the TGI with COLO 205 colon, in the test with HL-60(TB) leukemia and with SK-MEL-5 melanoma was > 100 µM each time.
For `C(=C\N1CCCCC1)/c1nnnn1-c1ccccc1`, the TGI is > 100 µM in the test on SW-620 colon; 56.6 µM in the test on RXF 393 renal; > 100 µM in the test with TK-10 renal; 38.5 µM with M14 melanoma; 90.6 µM with OVCAR-3 ovarian; > 100 µM in the test with BT-549 breast. Further, the TGI in the test with COLO 205 colon is > 100 µM; in the test with HL-60(TB) leukemia, 37.7 µM; in the test with SK-MEL-5 melanoma, 58.9 µM.
In the case of `CCN(CC)c1ccc2cc(C(=O)Nc3ccccn3)c(=N)oc2c1`, the TGI was > 100 µM with SW-620 colon; > 100 µM in the test with RXF 393 renal; > 100 µM in the test with M14 melanoma; > 100 µM in the test on OVCAR-3 ovarian; 95.7 µM with SK-MEL-2 melanoma; > 100 µM in the test with BT-549 breast. In addition, the TGI in the test on COLO 205 colon, in the test on HL-60(TB) leukemia and in the test with SK-MEL-5 melanoma was > 100 µM in each case.
In the case of `CCOC(=O)Oc1ccc2c(c1)c(=O)c1c(NCCN(CC)CC)ccc3nnn2c31`, the TGI in the test on SW-620 colon was determined as 13.2 µM; in the test with RXF 393 renal it was 18.8 µM; with TK-10 renal it was 16.2 µM; with M14 melanoma it was 19.1 µM; in the test on OVCAR-3 ovarian it was 19.7 µM; in the test on SK-MEL-2 melanoma, 27 µM. Moreover, the TGI stood at 23.1 µM in the test with BT-549 breast, 14.9 µM in the test on COLO 205 colon and 16.1 µM in the test on SK-MEL-5 melanoma.
Turning to `O=C(CCc1ccccc1)ON1C(=S)C(c2ccccc2)(c2ccccc2)N=C1Sc1ccccc1`, the TGI in the test with RXF 393 renal, in the test on TK-10 renal, in the test with M14 melanoma, with OVCAR-3 ovarian, in the test on SK-MEL-2 melanoma and in the test on BT-549 breast was > 100 µM each time. The TGI with COLO 205 colon, in the test with HL-60(TB) leukemia and in the test on SK-MEL-5 melanoma was > 100 µM throughout.
As to `O=c1cnn(CCOCP(=O)(O)O)c(=O)[nH]1`, the TGI in the test on SW-620 colon, in the test on RXF 393 renal, in the test with TK-10 renal, with M14 melanoma, with OVCAR-3 ovarian and in the test with SK-MEL-2 melanoma was > 100 µM each time. Also, the TGI in the test with BT-549 breast, in the test on COLO 205 colon and with SK-MEL-5 melanoma was > 100 µM throughout.
Take `COc1cc(C2c3cc4c(cc3OC(NCCO)C2C)OCO4)cc(OC)c1OC` (stereo not given): the TGI is > 100 µM in the test with SW-620 colon; > 100 µM in the test on RXF 393 renal; > 96.3 µM in the test on TK-10 renal; > 45 µM in the test on M14 melanoma; 0.603 µM in the test with OVCAR-3 ovarian; > 100 µM in the test on SK-MEL-2 melanoma. The TGI in the test on BT-549 breast was > 100 µM; in the test on COLO 205 colon, 12.3 µM; with SK-MEL-5 melanoma, 13.4 µM.
On to `C[Si](C)(c1ccccc1)[C@H]1CCCC=C1CCNC1c2ccccc2CCc2ccccc21`, for which the TGI in the test on SW-620 colon, in the test with RXF 393 renal, in the test with TK-10 renal, in the test with M14 melanoma, in the test with OVCAR-3 ovarian and with SK-MEL-2 melanoma was > 100 µM throughout. In addition, the TGI in the test with BT-549 breast, with COLO 205 colon and in the test on SK-MEL-5 melanoma was > 100 µM throughout.
`CCc1ccccc1NNc1cc(=O)[nH]c(=O)[nH]1`: the TGI worked out at 37.3 µM with SW-620 colon; 40.1 µM with RXF 393 renal; 35.1 µM with M14 melanoma; 30.8 µM in the test with OVCAR-3 ovarian; 56.2 µM with SK-MEL-2 melanoma; 41.4 µM in the test with BT-549 breast. Moreover, the TGI in the test with COLO 205 colon was 34.5 µM; in the test with HL-60(TB) leukemia, > 100 µM; with SK-MEL-5 melanoma it was 32.4 µM.
`CCCC(CCN)(CCN)[N+](=O)[O-]`: the TGI with SW-620 colon, with RXF 393 renal, in the test on TK-10 renal, in the test with M14 melanoma, with SK-MEL-2 melanoma and in the test on BT-549 breast was > 100 µM throughout. Besides, the TGI in the test on COLO 205 colon, with HL-60(TB) leukemia and with SK-MEL-5 melanoma was > 100 µM throughout.
Take `C[N+]1(CCN[N+]2(C)CCCCC2)CCc2ccccc2C1` (stereo not given): the TGI in the test with SW-620 colon, in the test with RXF 393 renal, in the test on TK-10 renal, in the test with M14 melanoma, with OVCAR-3 ovarian and in the test with SK-MEL-2 melanoma was > 100 µM in each case. For the same molecule, the TGI in the test with BT-549 breast, with COLO 205 colon and in the test on SK-MEL-5 melanoma was > 100 µM in each case.
As for `O=C(OCC(Cl)(Cl)Cl)O[C@@H]1CCCC1(c1ccccc1)c1ccccc1`, the TGI with SW-620 colon, in the test on RXF 393 renal, in the test on TK-10 renal, in the test with M14 melanoma, in the test with BT-549 breast and with COLO 205 colon was > 100 µM throughout. In the test with SK-MEL-5 melanoma, the TGI was > 100 µM.
For the molecule `N#C[C@H](c1nc2ccccc2s1)c1nc2ccccc2nc1Cl`, the TGI with SW-620 colon is > 100 µM; with RXF 393 renal it was 32 µM; with M14 melanoma, 34.1 µM; in the test with OVCAR-3 ovarian, 38.9 µM; in the test with SK-MEL-2 melanoma, > 100 µM; with BT-549 breast, 21.4 µM. Moreover, the TGI in the test with COLO 205 colon, in the test with HL-60(TB) leukemia and in the test on SK-MEL-5 melanoma was > 100 µM each time.
